# Calls of active or inactive are those of the source. The calls are words filed in the database; no cut-off is given here.
# Columns and labels:
# [1] = target: T1, cGMP-specific 3',5'-cyclic phosphodiesterase (Homo sapiens, UniProt O76074); assay: Inhibition of PDE5A (unknown origin) using […] as substrate incubated for 1 hr by fluorescence polarization assay
# [2] = target: T1, cGMP-specific 3',5'-cyclic phosphodiesterase; assay: Inhibition of PDE5A (unknown origin) using […] as substrate at 1000 nM incubated for 1 hr by fluorescence polarization assay relative to control
# [3] = MRT (0 to t) in Sprague-Dawley rat at 10 mg/kg, po measured for 5 to 1440 mins by LC-MS/MS analysis; type: ADME, organism-based; settings: in vivo, time 5-1440 min
# [4] = AUC (0 to infinity) in Sprague-Dawley rat at 10 mg/kg, po measured for 5 to 1440 mins by LC-MS/MS analysis; type: ADME, organism-based; settings: in vivo, time 5-1440 min
# [5] = Apparent volume of distribution in Sprague-Dawley rat at 2 mg/kg, iv measured for 5 to 1440 mins by LC-MS/MS analysis; type: ADME, organism-based; settings: in vivo, time 5-1440 min, read-out: Vz
# [6] = target: Dual 3',5'-cyclic-AMP and -GMP phosphodiesterase 11A (Homo sapiens, UniProt Q9HCR9); assay: Inhibition of PDE11A (unknown origin) using FAM-cAMP as substrate incubated for 1 hr by fluorescence polarization assay
# [7] = Clearance in Sprague-Dawley rat at 10 mg/kg, po measured for 5 to 1440 mins by LC-MS/MS analysis; type: ADME, organism-based; settings: in vivo, time 5-1440 min
# [8] = target: 3',5'-cyclic-AMP phosphodiesterase 4D (Homo sapiens, UniProt Q08499); assay: Inhibition of PDE4D2 (unknown origin) using FAM-cAMP as substrate incubated for 1 hr by fluorescence polarization assay
# Chain of 3',5'-cyclic-AMP phosphodiesterase 4D (Q08499 whole entry): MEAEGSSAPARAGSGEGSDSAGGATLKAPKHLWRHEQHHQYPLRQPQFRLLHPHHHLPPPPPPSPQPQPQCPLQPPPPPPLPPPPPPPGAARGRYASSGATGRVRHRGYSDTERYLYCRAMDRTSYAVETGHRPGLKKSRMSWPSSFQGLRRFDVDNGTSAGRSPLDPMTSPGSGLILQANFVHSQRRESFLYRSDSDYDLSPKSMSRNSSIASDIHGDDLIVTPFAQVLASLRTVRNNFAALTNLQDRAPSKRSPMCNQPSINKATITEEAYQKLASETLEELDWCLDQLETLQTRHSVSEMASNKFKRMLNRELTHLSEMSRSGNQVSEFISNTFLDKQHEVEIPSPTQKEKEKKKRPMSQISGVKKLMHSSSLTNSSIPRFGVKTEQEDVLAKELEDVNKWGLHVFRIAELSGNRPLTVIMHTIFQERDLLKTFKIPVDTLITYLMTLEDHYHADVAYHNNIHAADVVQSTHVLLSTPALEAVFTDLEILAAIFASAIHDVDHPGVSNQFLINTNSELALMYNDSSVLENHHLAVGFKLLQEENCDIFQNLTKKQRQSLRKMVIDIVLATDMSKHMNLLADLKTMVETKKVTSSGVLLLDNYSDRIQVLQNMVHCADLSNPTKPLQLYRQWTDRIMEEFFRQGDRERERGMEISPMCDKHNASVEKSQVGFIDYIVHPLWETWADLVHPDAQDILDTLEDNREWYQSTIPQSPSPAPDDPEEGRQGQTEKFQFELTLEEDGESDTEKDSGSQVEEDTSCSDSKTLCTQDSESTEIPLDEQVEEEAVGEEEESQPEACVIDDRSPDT
# [9] = target: cAMP and cAMP-inhibited cGMP 3',5'-cyclic phosphodiesterase 10A (Homo sapiens, UniProt Q9Y233); assay: Inhibition of PDE10A2 (unknown origin) using FAM-cAMP as substrate incubated for 1 hr by fluorescence polarization assay
# Chain of cAMP and cAMP-inhibited cGMP 3',5'-cyclic phosphodiesterase 10A (Q9Y233 whole entry): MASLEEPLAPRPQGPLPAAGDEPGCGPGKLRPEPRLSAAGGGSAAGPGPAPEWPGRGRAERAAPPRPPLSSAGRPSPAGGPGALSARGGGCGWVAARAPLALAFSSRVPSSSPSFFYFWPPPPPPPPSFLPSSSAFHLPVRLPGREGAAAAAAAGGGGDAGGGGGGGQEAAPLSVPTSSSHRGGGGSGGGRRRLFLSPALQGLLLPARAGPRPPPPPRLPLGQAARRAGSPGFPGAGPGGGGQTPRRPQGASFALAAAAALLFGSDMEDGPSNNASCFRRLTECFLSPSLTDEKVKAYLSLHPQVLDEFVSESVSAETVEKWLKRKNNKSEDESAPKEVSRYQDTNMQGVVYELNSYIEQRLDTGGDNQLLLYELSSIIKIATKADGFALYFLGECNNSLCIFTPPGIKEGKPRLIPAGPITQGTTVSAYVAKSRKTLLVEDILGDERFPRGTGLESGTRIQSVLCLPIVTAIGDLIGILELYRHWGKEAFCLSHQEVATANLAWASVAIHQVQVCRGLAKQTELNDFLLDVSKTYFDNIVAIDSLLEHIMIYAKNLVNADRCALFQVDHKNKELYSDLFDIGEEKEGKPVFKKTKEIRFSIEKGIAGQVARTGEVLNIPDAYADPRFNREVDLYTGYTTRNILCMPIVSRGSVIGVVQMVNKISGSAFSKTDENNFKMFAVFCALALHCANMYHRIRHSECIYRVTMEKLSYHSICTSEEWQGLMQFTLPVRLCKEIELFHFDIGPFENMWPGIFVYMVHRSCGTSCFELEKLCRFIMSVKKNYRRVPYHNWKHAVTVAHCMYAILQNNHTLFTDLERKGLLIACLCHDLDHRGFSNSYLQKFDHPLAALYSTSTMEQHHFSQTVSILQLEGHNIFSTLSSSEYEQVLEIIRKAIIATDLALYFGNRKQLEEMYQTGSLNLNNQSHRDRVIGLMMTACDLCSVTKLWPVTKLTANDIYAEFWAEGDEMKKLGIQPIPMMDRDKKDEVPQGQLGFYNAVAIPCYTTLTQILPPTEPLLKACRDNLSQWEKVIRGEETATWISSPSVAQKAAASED
# [10] = Half life in rat liver microsomes; type: ADME, Microsome
# Cytochrome P450 2C19 = Cytochrome P450 2C19 (Homo sapiens, UniProt P33261); assay: Inhibition of CYP2C19 (unknown origin); type: ADME
# [11] = Toxicity in mono-crotaline-treated Sprague-Dawley rat model of Pulmonary arterial hypertension assessed as body weight change at 2.5 to 5 mg/kg for 21 days; type: organism-based; settings: in vivo, 504 h, dose 2.5-5 mg/kg, time 21 day
# [12] = Half life in Sprague-Dawley rat at 10 mg/kg, po measured for 5 to 1440 mins by LC-MS/MS analysis; type: ADME, organism-based; settings: in vivo, time 5-1440 min
# [13] = target: Cone cGMP-specific 3',5'-cyclic phosphodiesterase subunit alpha' (Homo sapiens, UniProt P51160); assay: Inhibition of PDE6C (unknown origin) using […] as substrate incubated for 1 hr by fluorescence polarization assay
# [14] = target: Voltage-gated inwardly rectifying potassium channel KCNH2 (Homo sapiens, UniProt Q12809); assay: Inhibition of hERG; type: toxicity
# Cytochrome P450 1A2 = target: T2, Cytochrome P450 1A2 (Homo sapiens, UniProt P05177); assay: Inhibition of CYP1A2 (unknown origin); type: ADME
# T2 sequence (P05177 whole entry): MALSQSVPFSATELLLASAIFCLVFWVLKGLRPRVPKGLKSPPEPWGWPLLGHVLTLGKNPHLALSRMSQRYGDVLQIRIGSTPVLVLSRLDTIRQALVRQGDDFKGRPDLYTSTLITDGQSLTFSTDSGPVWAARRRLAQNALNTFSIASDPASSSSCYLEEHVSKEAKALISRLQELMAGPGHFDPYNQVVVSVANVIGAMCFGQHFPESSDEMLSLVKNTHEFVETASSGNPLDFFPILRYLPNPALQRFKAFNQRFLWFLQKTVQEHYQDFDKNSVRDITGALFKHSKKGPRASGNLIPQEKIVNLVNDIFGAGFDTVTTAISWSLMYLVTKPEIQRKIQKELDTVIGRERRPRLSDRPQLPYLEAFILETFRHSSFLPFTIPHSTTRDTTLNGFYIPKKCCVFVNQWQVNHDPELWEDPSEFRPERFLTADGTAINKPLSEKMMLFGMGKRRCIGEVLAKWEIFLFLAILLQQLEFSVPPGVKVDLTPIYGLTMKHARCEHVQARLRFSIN
# Cytochrome P450 3A4 = Cytochrome P450 3A4 (Homo sapiens, UniProt P08684); assay: Inhibition of CYP3A4 (unknown origin); type: ADME
# [15] = target: High affinity cAMP-specific and IBMX-insensitive 3',5'-cyclic phosphodiesterase 8A (Homo sapiens, UniProt O60658); assay: Inhibition of PDE8A1 (unknown origin) using FAM-cAMP as substrate incubated for 1 hr by fluorescence polarization assay
# [16] = Clearance in Sprague-Dawley rat at 2 mg/kg, iv measured for 5 to 1440 mins by LC-MS/MS analysis; type: ADME, organism-based; settings: in vivo, time 5-1440 min
# Cytochrome P450 2D6 = Cytochrome P450 2D6 (Homo sapiens, UniProt P10635); assay: Inhibition of CYP2D6 (unknown origin); type: ADME
# Chain of Cytochrome P450 2D6 (P10635 whole entry): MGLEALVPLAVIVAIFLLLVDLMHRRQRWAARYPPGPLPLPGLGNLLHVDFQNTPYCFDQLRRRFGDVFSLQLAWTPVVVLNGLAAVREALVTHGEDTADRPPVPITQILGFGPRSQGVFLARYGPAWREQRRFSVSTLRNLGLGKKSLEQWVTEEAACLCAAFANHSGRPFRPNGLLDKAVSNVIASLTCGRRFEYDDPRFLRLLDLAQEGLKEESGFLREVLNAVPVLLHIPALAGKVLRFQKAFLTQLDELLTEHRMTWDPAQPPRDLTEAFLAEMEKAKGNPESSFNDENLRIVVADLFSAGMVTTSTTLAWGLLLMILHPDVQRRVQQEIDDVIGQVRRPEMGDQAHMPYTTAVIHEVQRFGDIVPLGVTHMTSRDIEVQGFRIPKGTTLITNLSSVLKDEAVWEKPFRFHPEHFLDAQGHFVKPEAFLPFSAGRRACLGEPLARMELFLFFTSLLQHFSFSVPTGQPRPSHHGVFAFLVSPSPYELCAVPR
# [17] = MRT (0 to infinity) in Sprague-Dawley rat at 10 mg/kg, po measured for 5 to 1440 mins by LC-MS/MS analysis; type: ADME, organism-based; settings: in vivo, time 5-1440 min
# [18] = Cmax in Sprague-Dawley rat at 10 mg/kg, po measured for 5 to 1440 mins by LC-MS/MS analysis; type: ADME, organism-based; settings: in vivo, time 5-1440 min
# [19] = Cmax in Sprague-Dawley rat at 2 mg/kg, iv measured for 5 to 1440 mins by LC-MS/MS analysis; type: ADME, organism-based; settings: in vivo, time 5-1440 min
# [20] = target: Dual specificity calcium/calmodulin-dependent 3',5'-cyclic nucleotide phosphodiesterase 1C (Homo sapiens, UniProt Q14123); assay: Inhibition of PDE1C (unknown origin) using FAM-cAMP as substrate incubated for 1 hr by fluorescence polarization assay
# Chain of Dual specificity calcium/calmodulin-dependent 3',5'-cyclic nucleotide phosphodiesterase 1C (Q14123 whole entry): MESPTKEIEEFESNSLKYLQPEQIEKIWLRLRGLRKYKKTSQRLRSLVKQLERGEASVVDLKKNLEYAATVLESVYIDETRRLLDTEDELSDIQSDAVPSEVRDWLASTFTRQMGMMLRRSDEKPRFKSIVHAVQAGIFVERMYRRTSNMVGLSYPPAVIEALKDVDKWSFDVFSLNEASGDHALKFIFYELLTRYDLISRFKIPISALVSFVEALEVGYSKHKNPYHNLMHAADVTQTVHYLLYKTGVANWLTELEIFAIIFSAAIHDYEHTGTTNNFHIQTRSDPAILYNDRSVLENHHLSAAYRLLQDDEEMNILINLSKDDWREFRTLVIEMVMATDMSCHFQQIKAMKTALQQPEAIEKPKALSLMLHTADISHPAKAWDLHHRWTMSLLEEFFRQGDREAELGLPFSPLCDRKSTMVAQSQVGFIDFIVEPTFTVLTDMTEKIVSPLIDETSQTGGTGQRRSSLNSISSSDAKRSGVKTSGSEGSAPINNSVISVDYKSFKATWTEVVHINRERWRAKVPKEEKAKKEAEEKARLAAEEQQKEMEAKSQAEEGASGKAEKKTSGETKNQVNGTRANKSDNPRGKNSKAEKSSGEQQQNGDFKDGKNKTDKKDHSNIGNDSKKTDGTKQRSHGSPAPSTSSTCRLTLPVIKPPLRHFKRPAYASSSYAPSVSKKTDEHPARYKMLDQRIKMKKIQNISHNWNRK
# [21] = MRT (0 to t) in Sprague-Dawley rat at 2 mg/kg, iv measured for 5 to 1440 mins by LC-MS/MS analysis; type: ADME, organism-based; settings: in vivo, time 5-1440 min
# [22] = Tmax in Sprague-Dawley rat at 10 mg/kg, po measured for 5 to 1440 mins by LC-MS/MS analysis; type: ADME, organism-based; settings: in vivo, time 5-1440 min
# Rattus norvegicus [23] = assay: Anti-Pulmonary arterial hypertension in mono-crotaline-treated Sprague-Dawley rat model assessed as decrease in mPAP level at 5 mg/kg for 21 days; type: functional, organism-based; settings: time 21.0 day
# [24] = target: cGMP-inhibited 3',5'-cyclic phosphodiesterase 3A (Homo sapiens, UniProt Q14432); assay: Inhibition of PDE3A (unknown origin) using FAM-cAMP as substrate incubated for 1 hr by fluorescence polarization assay
# [25] = Half life in Sprague-Dawley rat at 2 mg/kg, iv measured for 5 to 1440 mins by LC-MS/MS analysis; type: ADME, organism-based; settings: in vivo, time 5-1440 min
# Rattus norvegicus [26] = assay: Anti-Pulmonary arterial hypertension in mono-crotaline-treated Sprague-Dawley rat model assessed as decrease in mPAP level at 2.5 mg/kg for 21 days; type: functional, organism-based; settings: time 21.0 day
# Rattus norvegicus [27] = assay: Anti-Pulmonary arterial hypertension in mono-crotaline-treated Sprague-Dawley rat model assessed as decrease in RVHI level at 2.5 to 5 mg/kg for 21 days; type: functional, organism-based; settings: dose 2.5-5 mg/kg, time 21.0 day
# [28] = target: cGMP-dependent 3',5'-cyclic phosphodiesterase (Homo sapiens, UniProt O00408); assay: Inhibition of PDE2A (unknown origin) using FAM-cAMP as substrate incubated for 1 hr by fluorescence polarization assay
# Chain of cGMP-dependent 3',5'-cyclic phosphodiesterase (O00408 whole entry): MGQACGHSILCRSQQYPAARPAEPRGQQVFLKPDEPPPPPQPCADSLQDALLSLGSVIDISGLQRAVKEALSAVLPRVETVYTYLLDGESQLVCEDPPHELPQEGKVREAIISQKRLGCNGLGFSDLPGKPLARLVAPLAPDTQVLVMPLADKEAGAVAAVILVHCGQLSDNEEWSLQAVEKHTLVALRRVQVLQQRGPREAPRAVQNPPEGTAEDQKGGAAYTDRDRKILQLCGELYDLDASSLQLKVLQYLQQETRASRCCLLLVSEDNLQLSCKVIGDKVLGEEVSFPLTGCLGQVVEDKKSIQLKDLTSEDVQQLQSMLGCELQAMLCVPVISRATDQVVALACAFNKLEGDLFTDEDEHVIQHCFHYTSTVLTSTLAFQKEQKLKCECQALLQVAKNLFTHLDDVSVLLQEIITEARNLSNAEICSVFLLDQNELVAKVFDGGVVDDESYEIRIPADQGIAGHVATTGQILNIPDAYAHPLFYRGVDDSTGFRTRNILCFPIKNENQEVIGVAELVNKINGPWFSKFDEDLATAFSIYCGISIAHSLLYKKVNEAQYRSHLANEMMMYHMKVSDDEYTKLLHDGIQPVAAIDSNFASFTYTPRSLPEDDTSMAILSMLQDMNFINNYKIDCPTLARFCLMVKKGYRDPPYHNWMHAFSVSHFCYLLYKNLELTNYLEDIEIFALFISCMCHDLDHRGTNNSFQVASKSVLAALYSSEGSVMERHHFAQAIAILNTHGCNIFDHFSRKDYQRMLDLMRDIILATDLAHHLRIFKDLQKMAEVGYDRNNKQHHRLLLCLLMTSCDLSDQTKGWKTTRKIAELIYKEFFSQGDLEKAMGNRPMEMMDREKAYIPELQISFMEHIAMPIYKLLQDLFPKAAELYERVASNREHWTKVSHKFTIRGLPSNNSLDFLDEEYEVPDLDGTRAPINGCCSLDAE
# [29] = Tmax in Sprague-Dawley rat at 2 mg/kg, iv measured for 5 to 1440 mins by LC-MS/MS analysis; type: ADME, organism-based; settings: in vivo, time 5-1440 min
# [30] = AUC (0 to infinity) in Sprague-Dawley rat at 2 mg/kg, iv measured for 5 to 1440 mins by LC-MS/MS analysis; type: ADME, organism-based; settings: in vivo, time 5-1440 min
# [31] = target: High affinity 3',5'-cyclic-AMP phosphodiesterase 7A (Homo sapiens, UniProt Q13946); assay: Inhibition of PDE7A (unknown origin) using FAM-cAMP as substrate incubated for 1 hr by fluorescence polarization assay
# Chain of High affinity 3',5'-cyclic-AMP phosphodiesterase 7A (Q13946 whole entry): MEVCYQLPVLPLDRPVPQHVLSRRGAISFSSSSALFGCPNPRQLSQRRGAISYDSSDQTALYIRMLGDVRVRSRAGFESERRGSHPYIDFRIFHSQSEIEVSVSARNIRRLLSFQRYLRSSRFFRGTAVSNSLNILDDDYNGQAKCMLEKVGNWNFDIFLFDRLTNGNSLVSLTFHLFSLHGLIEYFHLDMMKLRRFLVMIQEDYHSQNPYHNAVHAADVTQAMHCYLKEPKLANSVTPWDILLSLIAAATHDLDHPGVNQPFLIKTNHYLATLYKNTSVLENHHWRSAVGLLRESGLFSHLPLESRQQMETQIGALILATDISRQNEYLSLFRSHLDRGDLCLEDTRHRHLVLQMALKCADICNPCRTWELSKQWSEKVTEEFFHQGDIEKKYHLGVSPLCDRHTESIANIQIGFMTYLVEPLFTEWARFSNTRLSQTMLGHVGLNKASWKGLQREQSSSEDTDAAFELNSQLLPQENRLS
# [32] = AUC (0 to t) in Sprague-Dawley rat at 10 mg/kg, po measured for 5 to 1440 mins by LC-MS/MS analysis; type: ADME, organism-based; settings: in vivo, time 5-1440 min
# [33] = Volume of distribution in Sprague-Dawley rat at 10 mg/kg, po measured for 5 to 1440 mins by LC-MS/MS analysis; type: ADME, organism-based; settings: in vivo, time 5-1440 min
# [34] = Acute toxicity in mouse assessed as drug tolerance at >1.5 g/kg, po; settings: in vivo, 1500 mg/kg
# [35] = target: High affinity cGMP-specific 3',5'-cyclic phosphodiesterase 9A (Homo sapiens, UniProt O76083); assay: Inhibition of PDE9A2 (unknown origin) using […] as substrate incubated for 1 hr by fluorescence polarization assay
# Rattus norvegicus [36] = assay: Anti-Pulmonary arterial hypertension in mono-crotaline-treated Sprague-Dawley rat model assessed as decrease in pulmonary arteriole wall thickness at 2.5 to 5 mg/kg for 21 days by H and E staining based analysis; type: functional, organism-based; settings: dose 2.5-5 mg/kg, time 21.0 day
# [37] = AUC (0 to t) in Sprague-Dawley rat at 2 mg/kg, iv measured for 5 to 1440 mins by LC-MS/MS analysis; type: ADME, organism-based; settings: in vivo, time 5-1440 min
# [38] = Oral bioavailability in Sprague-Dawley rat at 10 mg/kg measured for 5 to 1440 mins by LC-MS/MS analysis; type: ADME, organism-based; settings: in vivo, time 5-1440 min
# Cytochrome P450 2C9 = Cytochrome P450 2C9 (Homo sapiens, UniProt P11712); assay: Inhibition of CYP2C9 (unknown origin); type: ADME
# Chain of Cytochrome P450 2C9 (P11712 whole entry): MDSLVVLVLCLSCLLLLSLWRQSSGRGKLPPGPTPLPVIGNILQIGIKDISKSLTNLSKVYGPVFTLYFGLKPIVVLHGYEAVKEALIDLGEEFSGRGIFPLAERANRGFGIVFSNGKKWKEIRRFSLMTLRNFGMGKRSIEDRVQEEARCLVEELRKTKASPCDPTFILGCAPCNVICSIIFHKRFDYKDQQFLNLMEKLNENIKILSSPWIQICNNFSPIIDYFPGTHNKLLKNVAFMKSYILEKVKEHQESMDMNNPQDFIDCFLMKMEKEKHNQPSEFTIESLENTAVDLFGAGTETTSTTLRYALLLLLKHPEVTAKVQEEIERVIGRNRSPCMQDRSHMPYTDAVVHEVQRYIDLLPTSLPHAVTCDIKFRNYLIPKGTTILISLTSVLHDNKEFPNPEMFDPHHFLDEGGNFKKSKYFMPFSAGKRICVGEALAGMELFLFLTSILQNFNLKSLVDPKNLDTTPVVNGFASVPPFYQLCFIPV
# [39] = MRT (0 to infinity) in Sprague-Dawley rat at 2 mg/kg, iv measured for 5 to 1440 mins by LC-MS/MS analysis; type: ADME, organism-based; settings: in vivo, time 5-1440 min
# [40] = target: T1, cGMP-specific 3',5'-cyclic phosphodiesterase; assay: Inhibition of PDE5A (unknown origin) using […] as substrate at 100 nM incubated for 1 hr by fluorescence polarization assay relative to control
smiles,measurement,setting,value
Cc1ccc(-c2c(C#N)c(=O)n(Cc3ccccc3)c3c(NCc4ccccn4)cccc23)cc1,IC50,[1],0.02 µM
Cc1ccc(-c2c(C#N)c(=O)n(CC3CC3)c3c(NC(C)c4ccccn4)cccc23)cc1 (configuration not stated),inhibition,[2],35%
Cc1ccc(-c2c(C#N)c(=O)n(Cc3ccccc3)c3c(NCc4ccccc4)cccc23)cc1,IC50,[1],0.02 µM
COc1ccc(-c2c(C#N)c(=O)n(Cc3ccccc3)c3c(N[C@H](C)c4ccccn4)cccc23)cc1,MRT last,[3],6.3 h
same,IC50,[1],0.003 µM
same,AUC(0-inf),[4],340 ng·h/mL
same,Vd,[5],16.3 L/kg
same,IC50,[6],> 100 µM
same,CL/F,[7],525 mL/min/kg
same,IC50,[8],53.3 µM
same,IC50,[9],21.2 µM
same,half-life,[10],4.41 min
same,IC50,Cytochrome P450 2C19,4.63 µM
same,Activity,[11],Non-toxic
same,half-life,[12],2.79 h
same,IC50,[13],0.02 µM
same,IC50,[14],> 30 µM
same,IC50,Cytochrome P450 1A2,> 50 µM
same,IC50,Cytochrome P450 3A4,> 50 µM
same,IC50,[15],> 100 µM
same,clearance,[16],83.3 mL/min/kg
same,IC50,Cytochrome P450 2D6,> 50 µM
same,MRT inf,[17],6.4 h
same,Cmax,[18],58.4 ng/mL
same,Cmax,[19],985 ng/mL
same,IC50,[20],10.5 µM
same,MRT last,[21],0.75 h
same,Tmax,[22],4 h
same,Activity,Rattus norvegicus [23],Active; The Effect Was Marginally Superior To That Of Sildenafil
same,IC50,[24],> 100 µM
same,half-life,[25],2.25 h
same,Activity,Rattus norvegicus [26],inactive
same,Activity,Rattus norvegicus [27],Active
same,IC50,[28],3.38 µM
same,Tmax,[29],4.98 min
same,AUC(0-inf),[30],399 ng·h/mL
same,IC50,[31],25.7 µM
same,AUC(0-t),[32],339 ng·h/mL
same,Vz,[33],126.6 L/kg
same,Activity,[34],Non-toxic
same,IC50,[35],> 100 µM
same,Activity,Rattus norvegicus [36],Active
same,AUC(0-t),[37],399 ng·h/mL
same,bioavailability,[38],16.8%
same,IC50,Cytochrome P450 2C9,9.76 µM
same,MRT inf,[39],0.76 h
CC(Nc1cccc2c(C3CCCC3)c(C#N)c(=O)n(Cc3ccccc3)c12)c1ccccn1 (configuration not stated),inhibition,[40],14%
Cc1ccc(-c2c(C#N)c(=O)n(Cc3ccc(F)cc3)c3c(NC(C)c4ccccn4)cccc23)cc1 (configuration not stated),inhibition,[40],5%
COc1ccc(-c2c(C#N)c(=O)n(Cc3ccccc3)c3c(N[C@@H](C)c4ccccn4)cccc23)cc1,IC50,[1],0.008 µM
CC(C)c1c(C#N)c(=O)n(Cc2ccccc2)c2c(NC(C)c3ccccn3)cccc12 (configuration not stated),IC50,[1],0.039 µM
CC(Nc1cccc2c(C3CCCCC3)c(C#N)c(=O)n(Cc3ccccc3)c12)c1ccccn1 (configuration not stated),IC50,[1],0.034 µM
COc1ccc(Cn2c(=O)c(C#N)c(-c3ccc(C)cc3)c3cccc(NC(C)c4ccccn4)c32)cc1Cl (configuration not stated),inhibition,[40],12%
